# ChEMBL document CHEMBL1201862, “PubChem BioAssay data set” (2004)
# The source made the active and inactive calls.
# What was measured:
# [1] = target: T1, Apoptotic protease-activating factor 1 (Homo sapiens, UniProt O14727); test: SAR analysis of small molecule Activators of Apaf-1 in a Fluorescent assay.; type: functional; conditions: read-out: EC50_Mean;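 note: caspase-3 cleavage of fluorogenic Rh110 DEVD substrate downstream of apoptosome activation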
# T1 sequence (O14727 whole entry): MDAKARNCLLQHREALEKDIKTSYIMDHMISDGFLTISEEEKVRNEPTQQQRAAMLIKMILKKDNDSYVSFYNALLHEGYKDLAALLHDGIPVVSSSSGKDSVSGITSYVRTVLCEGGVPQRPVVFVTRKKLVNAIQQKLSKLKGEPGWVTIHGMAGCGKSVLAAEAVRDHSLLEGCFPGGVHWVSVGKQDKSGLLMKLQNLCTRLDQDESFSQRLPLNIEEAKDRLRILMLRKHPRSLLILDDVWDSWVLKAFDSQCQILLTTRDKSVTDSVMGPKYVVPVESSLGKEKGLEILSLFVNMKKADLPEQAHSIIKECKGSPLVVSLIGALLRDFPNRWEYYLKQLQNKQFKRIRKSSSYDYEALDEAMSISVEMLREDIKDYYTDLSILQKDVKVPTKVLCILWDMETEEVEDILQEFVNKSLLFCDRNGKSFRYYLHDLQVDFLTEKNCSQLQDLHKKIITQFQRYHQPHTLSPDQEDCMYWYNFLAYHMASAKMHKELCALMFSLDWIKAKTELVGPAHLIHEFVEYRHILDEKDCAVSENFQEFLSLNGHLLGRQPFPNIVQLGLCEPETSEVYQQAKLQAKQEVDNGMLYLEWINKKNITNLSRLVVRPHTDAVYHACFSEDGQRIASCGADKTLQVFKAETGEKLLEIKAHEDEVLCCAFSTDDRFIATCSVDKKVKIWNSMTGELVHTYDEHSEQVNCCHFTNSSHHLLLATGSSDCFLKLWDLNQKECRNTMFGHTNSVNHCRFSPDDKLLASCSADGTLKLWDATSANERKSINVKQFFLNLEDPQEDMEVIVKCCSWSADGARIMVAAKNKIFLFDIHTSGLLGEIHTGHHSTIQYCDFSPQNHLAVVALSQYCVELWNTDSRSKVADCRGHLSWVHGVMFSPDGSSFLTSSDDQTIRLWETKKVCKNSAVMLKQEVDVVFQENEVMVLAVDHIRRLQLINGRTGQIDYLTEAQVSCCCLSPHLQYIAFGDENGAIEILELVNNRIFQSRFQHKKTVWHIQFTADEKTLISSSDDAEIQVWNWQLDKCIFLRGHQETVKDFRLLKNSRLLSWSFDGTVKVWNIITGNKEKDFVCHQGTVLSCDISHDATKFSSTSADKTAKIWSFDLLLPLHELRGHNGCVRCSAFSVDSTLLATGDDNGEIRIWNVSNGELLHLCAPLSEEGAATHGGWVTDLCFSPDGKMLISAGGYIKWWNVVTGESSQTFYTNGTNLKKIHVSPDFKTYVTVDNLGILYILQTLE
# [2] = target: Glucose-6-phosphate 1-dehydrogenase (Homo sapiens, UniProt P11413); test: inhibition of Homo sapiens G6PD, dose series – biochemical, fluorescence, selectivity assay for P. falciparum G6PD inhibitor project, dose response (AID 504792); type: functional
# Chain of Glucose-6-phosphate 1-dehydrogenase (P11413 whole entry): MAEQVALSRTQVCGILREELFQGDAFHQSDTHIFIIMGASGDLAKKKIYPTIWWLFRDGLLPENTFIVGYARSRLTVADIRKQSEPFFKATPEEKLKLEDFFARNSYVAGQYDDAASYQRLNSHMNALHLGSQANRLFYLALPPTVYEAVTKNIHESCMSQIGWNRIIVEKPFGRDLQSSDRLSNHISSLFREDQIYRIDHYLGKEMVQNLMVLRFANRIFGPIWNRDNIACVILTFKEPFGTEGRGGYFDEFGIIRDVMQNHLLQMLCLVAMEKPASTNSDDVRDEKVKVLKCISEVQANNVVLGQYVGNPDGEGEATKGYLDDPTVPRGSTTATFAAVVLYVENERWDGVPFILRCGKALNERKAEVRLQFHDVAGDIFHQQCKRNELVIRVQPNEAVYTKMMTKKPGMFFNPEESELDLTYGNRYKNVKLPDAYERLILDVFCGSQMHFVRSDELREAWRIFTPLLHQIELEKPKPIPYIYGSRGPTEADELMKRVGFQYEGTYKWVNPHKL
# Cysteine protease ATG4B = Cysteine protease ATG4B (Homo sapiens, UniProt Q9Y4P1); type: functional;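 note: Fluorescence-based dose-response confirmation assay measuring inhibition of ATG4B activity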
# Chain of Cysteine protease ATG4B (Q9Y4P1 whole entry): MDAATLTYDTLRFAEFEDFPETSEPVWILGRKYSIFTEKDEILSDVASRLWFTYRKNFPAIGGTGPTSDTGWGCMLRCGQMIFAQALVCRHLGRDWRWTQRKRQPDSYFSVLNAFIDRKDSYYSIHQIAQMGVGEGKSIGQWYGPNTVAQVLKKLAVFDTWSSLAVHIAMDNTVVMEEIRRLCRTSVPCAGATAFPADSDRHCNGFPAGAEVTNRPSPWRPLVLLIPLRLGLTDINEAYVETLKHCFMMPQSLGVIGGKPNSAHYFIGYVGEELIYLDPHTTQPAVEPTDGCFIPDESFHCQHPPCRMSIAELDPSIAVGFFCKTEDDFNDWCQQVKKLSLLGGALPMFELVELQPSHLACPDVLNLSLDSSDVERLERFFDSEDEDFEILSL
# Phospholipase A2 = Phospholipase A2 (Homo sapiens, UniProt P04054); type: functional;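 note: confirmatory dose-response counterscreen on phospholipase A2, testing hits that came from an ultra-high-throughput screen for ATG4B inhibitors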
# Chain of Phospholipase A2 (P04054 whole entry): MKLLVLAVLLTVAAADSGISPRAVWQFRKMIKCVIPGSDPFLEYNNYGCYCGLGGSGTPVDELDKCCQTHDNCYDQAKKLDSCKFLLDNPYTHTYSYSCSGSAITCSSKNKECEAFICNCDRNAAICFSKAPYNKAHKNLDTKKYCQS
# [3] = target: T2, Aryl hydrocarbon receptor (Homo sapiens, UniProt P35869); conditions: Potency;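 note: confirmatory quantitative high-throughput screen measuring activation of the AhR signaling pathway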
# T2 sequence (P35869 whole entry): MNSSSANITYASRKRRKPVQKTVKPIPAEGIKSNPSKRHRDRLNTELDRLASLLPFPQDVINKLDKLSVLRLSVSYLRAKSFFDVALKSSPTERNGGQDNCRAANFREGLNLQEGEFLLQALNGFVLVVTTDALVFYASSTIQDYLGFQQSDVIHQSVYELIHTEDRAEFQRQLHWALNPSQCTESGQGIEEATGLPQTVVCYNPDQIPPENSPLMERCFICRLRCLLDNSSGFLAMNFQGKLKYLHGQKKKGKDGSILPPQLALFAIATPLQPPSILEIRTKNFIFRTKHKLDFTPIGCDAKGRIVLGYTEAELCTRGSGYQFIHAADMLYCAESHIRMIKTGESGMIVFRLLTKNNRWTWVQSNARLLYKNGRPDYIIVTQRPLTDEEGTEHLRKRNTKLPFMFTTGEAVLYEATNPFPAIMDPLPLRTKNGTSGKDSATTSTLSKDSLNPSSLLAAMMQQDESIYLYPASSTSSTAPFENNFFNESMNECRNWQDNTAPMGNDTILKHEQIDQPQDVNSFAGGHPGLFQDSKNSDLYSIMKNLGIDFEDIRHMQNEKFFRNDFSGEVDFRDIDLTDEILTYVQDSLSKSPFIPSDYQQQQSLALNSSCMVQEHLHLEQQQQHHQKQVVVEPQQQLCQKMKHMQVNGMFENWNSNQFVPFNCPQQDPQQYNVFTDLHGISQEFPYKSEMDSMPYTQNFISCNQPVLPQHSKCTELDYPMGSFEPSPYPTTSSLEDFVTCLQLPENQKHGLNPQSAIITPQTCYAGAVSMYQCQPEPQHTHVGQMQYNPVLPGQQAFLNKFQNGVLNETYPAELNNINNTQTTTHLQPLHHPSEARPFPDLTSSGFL
# [4] = target: T3, Carboxy-terminal domain RNA polymerase II polypeptide A small phosphatase 1 (Homo sapiens, UniProt Q9GZU7); test: CTDSP1 inhibitors, concentration-response, biochemical, absorbance readout, ultra-high-throughput screen actives (AID 540297); type: functional
# T3 sequence (Q9GZU7 whole entry): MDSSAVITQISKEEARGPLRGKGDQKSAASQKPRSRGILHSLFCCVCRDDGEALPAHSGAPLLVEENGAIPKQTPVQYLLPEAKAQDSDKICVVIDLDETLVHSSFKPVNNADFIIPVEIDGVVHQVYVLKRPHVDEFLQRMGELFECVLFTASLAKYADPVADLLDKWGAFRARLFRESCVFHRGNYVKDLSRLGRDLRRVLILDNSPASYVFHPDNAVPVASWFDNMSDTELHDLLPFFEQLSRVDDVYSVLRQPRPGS
# [5] = target: DNA (cytosine-5)-methyltransferase 1 (Homo sapiens, UniProt P26358); test: inhibition of DNA methylation by DNMT1 – biochemical, fluorescent molecular beacon, confirmation (AID 602386); type: functional
# [6] = target: DNA dC->dU-editing enzyme APOBEC-3G (Homo sapiens, UniProt Q9HC16); test: SAR analysis of small molecule inhibitors of APOBEC3G DNA Deaminase via a fluorescence-based single-stranded DNA deaminase assay - Set 2.; type: functional; conditions: read-out: IC50_Mean
# Chain of DNA dC->dU-editing enzyme APOBEC-3G (Q9HC16 whole entry): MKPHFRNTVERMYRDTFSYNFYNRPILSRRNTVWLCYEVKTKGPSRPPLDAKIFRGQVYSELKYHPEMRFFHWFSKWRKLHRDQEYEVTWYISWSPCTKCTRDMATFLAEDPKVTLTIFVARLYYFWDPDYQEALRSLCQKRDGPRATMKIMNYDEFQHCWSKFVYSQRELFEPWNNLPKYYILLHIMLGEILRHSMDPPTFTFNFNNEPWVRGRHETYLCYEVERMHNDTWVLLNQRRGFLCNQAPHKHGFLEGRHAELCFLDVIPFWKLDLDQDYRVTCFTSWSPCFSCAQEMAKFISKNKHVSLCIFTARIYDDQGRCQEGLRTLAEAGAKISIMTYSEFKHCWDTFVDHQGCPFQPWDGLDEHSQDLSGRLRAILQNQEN
# [7] = target: DNA dC->dU-editing enzyme APOBEC-3A (Homo sapiens, UniProt P31941); test: SAR analysis of small molecule inhibitors of APOBEC3A DNA Deaminase via a fluorescence-based single-stranded DNA deaminase assay - Set 2.; type: functional; conditions: read-out: IC50_Mean
# Chain of DNA dC->dU-editing enzyme APOBEC-3A (P31941 whole entry): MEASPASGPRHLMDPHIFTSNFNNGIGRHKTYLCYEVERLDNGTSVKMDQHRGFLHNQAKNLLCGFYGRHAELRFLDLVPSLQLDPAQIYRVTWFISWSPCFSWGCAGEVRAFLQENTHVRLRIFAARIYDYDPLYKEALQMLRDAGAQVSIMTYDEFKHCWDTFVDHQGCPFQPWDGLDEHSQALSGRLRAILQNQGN
# Melanocortin receptor 4 = Melanocortin receptor 4 (Homo sapiens, UniProt P32245); type: functional, cell-based;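 note: Cell-based assay with luminescence read-out, confirmatory dose-response testing for agonist activity of biased ligands at MC4R; human U2OS cells with tagged receptor and beta-arrestin; potency of agonists that increase receptor coupling to beta-arrestin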
# Chain of Melanocortin receptor 4 (P32245 whole entry): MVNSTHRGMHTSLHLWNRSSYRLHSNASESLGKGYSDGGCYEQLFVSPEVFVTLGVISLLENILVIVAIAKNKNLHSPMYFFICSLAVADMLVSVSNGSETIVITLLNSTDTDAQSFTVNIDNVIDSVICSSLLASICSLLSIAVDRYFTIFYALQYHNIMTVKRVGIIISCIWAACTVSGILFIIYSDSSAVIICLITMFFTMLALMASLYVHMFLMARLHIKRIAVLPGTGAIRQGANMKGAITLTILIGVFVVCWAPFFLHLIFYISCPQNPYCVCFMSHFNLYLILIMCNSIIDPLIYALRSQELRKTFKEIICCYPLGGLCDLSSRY
# [8] = target: T4, High affinity choline transporter 1 (Homo sapiens, UniProt Q9GZV3); test: human choline transporter blockers, potency – cell-based, 5-point CRC, membrane potential dye, dose response (AID 504840); type: functional
# T4 sequence (Q9GZV3 whole entry): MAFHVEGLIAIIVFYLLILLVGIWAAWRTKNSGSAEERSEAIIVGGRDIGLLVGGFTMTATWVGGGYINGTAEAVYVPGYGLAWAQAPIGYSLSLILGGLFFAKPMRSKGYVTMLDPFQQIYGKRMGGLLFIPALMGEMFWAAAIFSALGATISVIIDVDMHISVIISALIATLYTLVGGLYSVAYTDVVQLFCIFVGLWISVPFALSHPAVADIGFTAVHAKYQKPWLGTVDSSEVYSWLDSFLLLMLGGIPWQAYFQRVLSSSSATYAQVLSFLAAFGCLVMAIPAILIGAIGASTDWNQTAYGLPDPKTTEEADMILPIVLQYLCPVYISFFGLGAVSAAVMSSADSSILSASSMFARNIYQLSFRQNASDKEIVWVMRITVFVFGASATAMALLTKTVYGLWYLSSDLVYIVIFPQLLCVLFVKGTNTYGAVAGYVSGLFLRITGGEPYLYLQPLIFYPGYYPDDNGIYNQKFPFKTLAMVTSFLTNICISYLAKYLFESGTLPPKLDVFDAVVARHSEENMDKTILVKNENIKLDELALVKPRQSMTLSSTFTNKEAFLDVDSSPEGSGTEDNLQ
# [9] = target: T4, High affinity choline transporter 1; test: human choline transporter blockers, potency – cell-based, 10-point CRC, membrane potential dye, dose response (AID 588401); type: functional;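 note: membrane potential dye fluorescence of choline-evoked depolarization via CHT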
# [10] = THP-1 cell cytotoxicity, cytotoxicity control, set 4 (AID 504911); type: functional; conditions: Mycobacterium tuberculosis
# [11] = viability of uninfected HEp-2 cells – cell-based, HTS, cytotoxicity control for RSV inhibitor project, dose response (AID 2410); type: functional; conditions: human respiratory syncytial virus
# [12] = target: Tyrosine-protein phosphatase non-receptor type 5 (Homo sapiens, UniProt P54829); test: PTPN5 enzyme inhibition – biochemical, fluorescence intensity, uHTS hits, confirmation (AID 602372); type: functional; conditions: read-out: IC50_Mean
# Chain of Tyrosine-protein phosphatase non-receptor type 5 (P54829 whole entry): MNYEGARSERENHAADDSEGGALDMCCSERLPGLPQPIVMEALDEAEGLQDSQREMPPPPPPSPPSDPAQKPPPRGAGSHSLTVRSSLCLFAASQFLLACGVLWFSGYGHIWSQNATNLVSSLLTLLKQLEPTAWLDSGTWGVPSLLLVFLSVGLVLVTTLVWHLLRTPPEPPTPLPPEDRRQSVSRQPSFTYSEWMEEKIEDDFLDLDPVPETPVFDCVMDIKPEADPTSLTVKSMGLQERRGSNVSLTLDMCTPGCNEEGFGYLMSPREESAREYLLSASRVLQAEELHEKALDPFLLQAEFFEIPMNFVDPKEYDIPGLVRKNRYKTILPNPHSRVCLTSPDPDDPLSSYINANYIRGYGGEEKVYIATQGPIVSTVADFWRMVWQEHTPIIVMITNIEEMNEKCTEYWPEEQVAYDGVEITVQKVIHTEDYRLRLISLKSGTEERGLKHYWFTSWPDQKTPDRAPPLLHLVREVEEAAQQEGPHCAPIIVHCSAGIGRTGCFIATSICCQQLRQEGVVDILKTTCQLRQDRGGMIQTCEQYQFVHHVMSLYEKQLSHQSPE
# [13] = target: Dual specificity protein phosphatase 3 (Homo sapiens, UniProt P51452); test: VHR phosphatase inhibition, dose response, selectivity assay for STEP inhibitor project, biochemical (AID 602374); type: functional; conditions: read-out: IC50_Mean
# [14] = target: Tyrosine-protein phosphatase non-receptor type 11 (Homo sapiens, UniProt Q06124); test: PTPN11 enzyme inhibitors – biochemical, selectivity assay for STEP inhibitor project, dose response (AID 602367); type: functional; conditions: read-out: IC50_Mean
# Caspase-6 = target: T5, Caspase-6 (Homo sapiens, UniProt P55212); test: inhibition of CASP6 peptide cleavage – biochemical, VEID-R110 fluorescence, cherry-pick, dose response (AID 720632)
# T5 sequence (P55212 whole entry): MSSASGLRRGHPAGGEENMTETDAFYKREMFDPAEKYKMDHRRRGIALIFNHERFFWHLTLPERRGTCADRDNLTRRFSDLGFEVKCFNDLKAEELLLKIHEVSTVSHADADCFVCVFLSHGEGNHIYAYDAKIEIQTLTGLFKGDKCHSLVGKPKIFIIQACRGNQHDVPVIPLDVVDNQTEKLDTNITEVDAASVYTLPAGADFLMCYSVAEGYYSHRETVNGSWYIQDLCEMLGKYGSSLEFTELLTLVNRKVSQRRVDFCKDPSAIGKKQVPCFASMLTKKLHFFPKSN
# [15] = target: T6, Beta-adrenergic receptor kinase 1 (Homo sapiens, UniProt P25098); test: aptamer displacement from bead-bound GRK2 – biochemical, cherry pick 1, bead flow cytometry, dose response (AID 504500)
# T6 sequence (P25098 whole entry): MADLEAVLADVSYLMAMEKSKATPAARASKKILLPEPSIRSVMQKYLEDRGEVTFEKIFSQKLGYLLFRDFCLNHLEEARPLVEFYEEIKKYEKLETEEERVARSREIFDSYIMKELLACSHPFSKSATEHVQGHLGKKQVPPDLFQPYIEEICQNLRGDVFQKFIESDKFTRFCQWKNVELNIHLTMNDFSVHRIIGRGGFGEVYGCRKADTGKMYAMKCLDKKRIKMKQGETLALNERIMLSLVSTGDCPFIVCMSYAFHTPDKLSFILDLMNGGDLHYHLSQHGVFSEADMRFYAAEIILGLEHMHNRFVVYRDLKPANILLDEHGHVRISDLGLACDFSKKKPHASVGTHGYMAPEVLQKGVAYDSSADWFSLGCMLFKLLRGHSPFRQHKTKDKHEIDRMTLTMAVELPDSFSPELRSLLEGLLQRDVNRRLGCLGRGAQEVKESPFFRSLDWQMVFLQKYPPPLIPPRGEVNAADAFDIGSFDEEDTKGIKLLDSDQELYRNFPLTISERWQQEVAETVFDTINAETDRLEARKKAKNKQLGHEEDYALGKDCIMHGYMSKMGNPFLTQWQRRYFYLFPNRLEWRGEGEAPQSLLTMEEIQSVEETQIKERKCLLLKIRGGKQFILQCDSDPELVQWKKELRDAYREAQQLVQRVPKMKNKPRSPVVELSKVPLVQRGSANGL
# [16] = target: Voltage-dependent T-type calcium channel subunit alpha-1H (Homo sapiens, UniProt O95180); type: functional;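 note: channel activity triggered by adding a high calcium stimulation buffer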
# Chain of Voltage-dependent T-type calcium channel subunit alpha-1H (O95180 whole entry): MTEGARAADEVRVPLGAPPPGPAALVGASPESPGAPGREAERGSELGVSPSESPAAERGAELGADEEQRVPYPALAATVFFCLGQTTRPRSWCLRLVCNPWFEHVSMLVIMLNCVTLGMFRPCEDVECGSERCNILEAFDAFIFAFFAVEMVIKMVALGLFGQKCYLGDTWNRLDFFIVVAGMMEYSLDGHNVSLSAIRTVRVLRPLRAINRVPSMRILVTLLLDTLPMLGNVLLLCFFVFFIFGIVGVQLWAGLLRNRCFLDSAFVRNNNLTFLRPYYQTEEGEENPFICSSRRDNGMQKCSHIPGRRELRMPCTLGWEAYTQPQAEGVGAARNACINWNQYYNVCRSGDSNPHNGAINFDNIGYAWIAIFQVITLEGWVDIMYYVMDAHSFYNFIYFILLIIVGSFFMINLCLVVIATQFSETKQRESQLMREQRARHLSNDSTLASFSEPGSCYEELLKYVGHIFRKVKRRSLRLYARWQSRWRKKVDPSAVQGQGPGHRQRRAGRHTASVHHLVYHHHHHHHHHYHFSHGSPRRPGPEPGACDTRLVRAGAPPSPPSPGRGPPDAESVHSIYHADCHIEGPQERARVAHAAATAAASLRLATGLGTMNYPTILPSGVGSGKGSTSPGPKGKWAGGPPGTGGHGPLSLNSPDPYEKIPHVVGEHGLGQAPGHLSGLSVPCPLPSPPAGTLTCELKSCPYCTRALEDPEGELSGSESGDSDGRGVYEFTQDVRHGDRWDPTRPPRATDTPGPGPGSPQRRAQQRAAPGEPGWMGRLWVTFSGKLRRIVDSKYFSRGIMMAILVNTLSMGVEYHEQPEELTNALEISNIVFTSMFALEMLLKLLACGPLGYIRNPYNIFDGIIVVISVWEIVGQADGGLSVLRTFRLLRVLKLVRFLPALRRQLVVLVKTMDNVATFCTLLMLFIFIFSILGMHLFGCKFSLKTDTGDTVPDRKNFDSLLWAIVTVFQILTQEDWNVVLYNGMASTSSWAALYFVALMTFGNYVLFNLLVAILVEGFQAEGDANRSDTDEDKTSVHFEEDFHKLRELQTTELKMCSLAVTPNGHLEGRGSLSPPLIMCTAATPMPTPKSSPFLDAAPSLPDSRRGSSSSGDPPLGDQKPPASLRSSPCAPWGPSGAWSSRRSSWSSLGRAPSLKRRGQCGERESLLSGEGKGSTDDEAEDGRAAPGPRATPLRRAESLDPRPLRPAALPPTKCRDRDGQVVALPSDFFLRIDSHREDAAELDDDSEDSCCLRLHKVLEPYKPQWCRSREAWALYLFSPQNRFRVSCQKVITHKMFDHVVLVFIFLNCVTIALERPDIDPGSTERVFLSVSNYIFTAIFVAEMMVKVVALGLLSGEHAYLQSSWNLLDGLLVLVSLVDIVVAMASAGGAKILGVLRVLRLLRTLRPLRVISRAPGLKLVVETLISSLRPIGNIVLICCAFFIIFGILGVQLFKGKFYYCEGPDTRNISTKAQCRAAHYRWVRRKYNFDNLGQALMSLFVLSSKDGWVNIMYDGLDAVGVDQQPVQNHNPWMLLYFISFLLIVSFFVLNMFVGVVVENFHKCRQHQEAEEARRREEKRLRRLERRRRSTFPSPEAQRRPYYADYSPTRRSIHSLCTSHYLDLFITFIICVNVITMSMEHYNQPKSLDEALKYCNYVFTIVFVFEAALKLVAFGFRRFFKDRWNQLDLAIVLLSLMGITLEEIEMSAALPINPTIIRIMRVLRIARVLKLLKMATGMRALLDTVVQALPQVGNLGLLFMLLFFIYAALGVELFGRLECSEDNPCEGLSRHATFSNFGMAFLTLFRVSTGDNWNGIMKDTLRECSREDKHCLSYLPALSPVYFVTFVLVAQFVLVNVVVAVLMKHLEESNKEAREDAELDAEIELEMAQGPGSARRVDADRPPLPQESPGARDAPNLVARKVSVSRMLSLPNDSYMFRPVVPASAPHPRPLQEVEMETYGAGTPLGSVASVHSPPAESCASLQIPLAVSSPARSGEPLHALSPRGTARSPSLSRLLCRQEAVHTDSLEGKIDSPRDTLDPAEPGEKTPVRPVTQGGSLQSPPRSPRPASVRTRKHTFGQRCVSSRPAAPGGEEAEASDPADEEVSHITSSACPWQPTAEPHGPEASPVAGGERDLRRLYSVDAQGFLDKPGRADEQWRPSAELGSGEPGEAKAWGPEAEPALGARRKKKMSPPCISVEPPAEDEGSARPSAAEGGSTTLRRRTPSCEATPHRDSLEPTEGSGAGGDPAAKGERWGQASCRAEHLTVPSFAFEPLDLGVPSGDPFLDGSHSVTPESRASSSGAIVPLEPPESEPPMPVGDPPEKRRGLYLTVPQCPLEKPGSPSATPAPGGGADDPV
smiles,measurement,setting,value
COC(=O)C(C)(N)Cc1c[nH]c2ccccc12 (configuration not stated),EC50,[1],> 100 µM (inactive)
Clc1cccc(Cl)c1CNc1ccc(N2CCCC2)cc1,IC50,[2],> 80 µM (inactive)
same,IC50,Cysteine protease ATG4B,11.9 µM (active)
same,IC50,Phospholipase A2,7.99 µM (active)
N[C@@H](Cc1c[nH]c2ccc(O)cc12)C(=O)O [OXITRIPTAN],AC50,[3],39.8 µM (inconclusive)
COc1cc(/C=C(\CCC(=O)O)c2nc3ccccc3s2)ccc1OCC(=O)Nc1c(Cl)cccc1Cl,IC50,[4],2.3 µM (active)
same,IC50,[5],10.1 µM (active)
Cc1nc2sc3c(c2c2n[nH]c(=S)n12)CCCC3,IC50,[6],0.693 µM (active)
same,IC50,[7],> 99 µM (inactive)
Cc1ccc2[nH]c(=O)c3cc(C(=O)N(CCCOC(C)C)Cc4ccco4)sc3c2c1,EC50,Melanocortin receptor 4,> 89.2 µM (inactive)
CCn1cc(C(=O)NCCCN2CCC(C)CC2)c(=O)c2cc(S(=O)(=O)N(C)C3CCCCC3)ccc21,IC50,[8],7.24 µM (active)
same,IC50,[9],7.94 µM (active)
O=C(CSc1nccc(=O)[nH]1)NC1CCCCC1,CC50,[10],> 100 µM (active)
O=C(CCCn1c(=S)[nH]c2cc3c(cc2c1=O)OCO3)N1CCN(c2ccc(F)cc2)CC1,CC50,[11],26.2 µM (active)
same,IC50,Cysteine protease ATG4B,13.5 µM (active)
same,IC50,Phospholipase A2,7.34 µM (active)
CCCN(CC(=O)Nc1ccccc1OC)C(=O)Cc1ccc2c(c1)CCC2,IC50,[12],19.5 µM (active)
same,IC50,[13],1.32 µM (active)
same,IC50,[14],4.79 µM (active)
CCOc1ccc(CCNC(=O)C2CC(C)=CCC2C(=O)O)cc1OCC (configuration not stated),AC50,Caspase-6,15.5 µM (active)
same,EC50,[15],51.3 µM (inactive)
same,IC50,[4],21 µM (active)
CN(Cc1ccccc1)C(=O)c1nn2cccnc2c1Cl,IC50,[6],> 99 µM (inactive)
same,IC50,[7],73.8 µM (inactive)
O=C(Nc1nnc(C(F)(F)F)s1)C1COc2ccccc2O1 (configuration not stated),IC50,[8],1.55 µM (active)
same,EC50,[16],6.26 µM (active)
same,IC50,[9],1.26 µM (active)
